One may read the solubility as how much of the substance goes into solution per volume.

Here are results for one substance from patent publication US20190247312A1, “PHARMACEUTICAL PREPARATION FOR DELIVERY OF PEPTIDES AND PROTEINS” (priority 2016, published 2019).

Series [1] has as its system blood glucose. Briefly: Blood glucose after dosing in STZ type I diabetes model (Example 5). It is filed as in vivo, Sprague-Dawley(SD) rats. The settings on record: 5 IU/kg s.c. control.
The conditions of series [2]: in 0.01N HCl; cited from earlier work.
Series [3] can be described thus: Pharmacokinetics of orally dosed insulin emulsion particles in STZ-treated rats (Example 3), plasma insulin. Conditions: 5 IU/kg s.c. control. The source says:
Parameters were estimated using Watson pharmacokinetic software 7.4.2 (Thermo Electron Corporation) using a non-compartmental approach consistent with the various routes of administration. All parameters were generated from Insulin individual animal concentrations in plasma. Parameters were estimated using nominal sampling times to be relative to the start of each dose administration (within an acceptable tolerance limit).
The area under the test item concentration versus time curve (AUC) was calculated using the linear-log linear trapezoidal method. AUC was not calculated for PK profiles with less than 3 consecutive quantifiable concentrations of test article at separate time points. When practical, the terminal elimination phase of each concentration versus time curve was identified using at least the final three observed concentration values. The slope of the terminal elimination phase was determined using linear regression on the unweighted concentration data. […] The parameters described below were reported to 3 significant figures.

For series [4], the system named is blood glucose. The series can be described thus: Blood glucose after dosing in STZ type I diabetes model (Example 3). Type of series: in vivo, Sprague-Dawley(SD) rats. Conditions: 5 IU/kg s.c. control.
Method: Animals were monitored for blood glucose levels daily over 10 days using a handheld glucometer to verify the disruption of insulin production. […] Prior to the experimental procedure, animals were weighed and randomized into groups based on body weight. All rats were then fasted for five hours prior to dosing.
Control animals were given 5 IU/kg s.c. or 2.5 IU/kg i.v., while experimental animals were dosed orally with 50 IU/kg of microemulsion particles. Food was returned immediately post-dosage and blood was collected at the indicated time points (15, 30, 30, 60, 90, 120, 150, 180, 210, 240, 270, 300, 480, 720, and 1440) over a 24 hr. period. Whole blood was processed to plasma and analyzed for insulin quantity.
Mean insulin and glucose concentrations from the blood of animals were assessed following dosing of 5 IU/kg subcutaneous insulin, 50 IU/kg per os (p.o., i.e., orally) administered TA-3 (BCC with zinc), 50 IU/kg p.o. administered TA-4 (zinc without BCC), and 50 IU/kg p.o. administered TA-7 (BCC without zinc).

On to insulin, for which the “blood glucose concentrations after s.c. injection” value in series [1] is given as “drop in blood glucose concentrations beginning just as insulin is detected in the blood”. The solubility in series [2] is 20 mg/mL. In addition, the “blood insulin levels after s.c. administration” value in series [3] is “rapid appearance and peak of insulin in the blood”. Further, the “blood glucose after s.c. administration” value in series [4] is “corresponding declines in blood glucose”.
